Measurements reported in US20230346771A1, “INHIBITORS OF ENPP1 AND MODULATION OF BONE GROWTH” (Petragen, Inc., priority 2022, published 2023).

System: fenestration defects on buccal aspect of mandibular first molar in mice
Assay: Fenestration defect model with microCT of mandibles
Assay type: in vivo
Conditions: high dose (10 uM, 1 uL on collagen sponge in defect); 28 days; compared to ALPL, DMSO and low dose
Procedure: Fenestration defects were created on buccal aspect of mandibular first molar, distal root, in 6-7 week old mice. Collagen sponge with 1 uL of either alkaline phosphatase (ALPL) (100 ng/uL), DMSO (1 uL undiluted), high dose ENPP1 inhibitor (10 uM), low dose ENPP1 inhibitor (1 uM) was applied in the defect (n=3 or 4 for each group). Mice were euthanized 28 days later, and their mandibles were microCT scanned (unoperated side, defect side). A region of interest was defined as follows: • Right and left sides registered to each other to standardize position; • 480 microns mesial to and 3600 microns distal to first molar mesial height of contour; and
Unoperated side with defect side were registered, the enamel was removed from analysis, and change in volume (defect side—control side) was calculated from for dentin/cementum and alveolar bone for each treatment: ALPL, DMSO, low dose ENPP1 inhibitor, and high dose ENPP1 inhibitor. Regenerated bone area was much larger than defect size. To make the defect, muscle attachment was severed, and the region was curetted. Because the collagen sponge was placed in the defect and not fully enclosed (muscle was repositioned and sutured over sponge), there could be some leakage of DMSO/ALP/ENPP1 inhibitor, further stimulating bone growth.

Q: `COc1ccc2c(-c3ccc(CNS(N)(=O)=O)cc3)ccnc2c1` [ENPP1 inhibitor, N-[[4-(7-methoxy-4-quinolinyl)phenyl]methyl]-sulfamide] was tested. Which “bone densities on the fenestration side (density heat maps)” value did it give?
A: Its value is “higher”.
